Counter-ions that a name gives are not always drawn. Like-named read-outs stand apart in the source and are kept apart here.
Key:
P. falciparum Tm90-C2B = test: SYBR Green growth inhibition assay, P. falciparum Tm90-C2B; type: cell-based, Plasmodium falciparum; details: read-out: IC50 Tm90-C2B
Description: (§1) In addition to the drug-sensitive P. falciparum D6 strain, the aminoguanidines were assessed against three drug-resistant strains (Tables 1-3).
(§2) The following parasite strains were used in this study and obtained through BEI Resources, NIAID, NIH. […] The culture medium used was RPMI-1640, supplemented with 25 mM HEPES buffer, 25 mg/L gentamicin sulfate, 45 mg/L hypoxanthine, 10 mM glucose, 2 mM glutamine, and 0.5% Albumax II (complete medium).^43 Cultures were maintained in a standard low oxygen atmosphere (5% O2, 5% CO2, 90% N2) in an environmental chamber and incubated at 37° C. Cultures were sub-passaged every 3-4 days into a fresh culture flask containing complete media and erythrocytes.
(§3) The aminoguanidine series was assessed for in vitro antiplasmodial activity using the fluorescence-based SYBR Green assay described previously by Smilkstein and co-workers.^38 Compounds were evaluated in quadruplicate in flat-bottomed Costar clear 96-well plates (Model #3585). A two-fold serial dilution of each compound was performed across the columns of the test plates starting with 20 μM and ending with a final untreated column to serve as control wells. Asynchronous parasite infected erythrocytes in growth media were added to each well for a total volume of 100 μL, final hematocrit of 2%, and initial parasitemia of 0.2%. The commercial malaria drugs atovaquone and chloroquine were used as control drugs. Test plates were incubated for 72 hr at 37° C. in an environmental chamber with a controlled low oxygen atmosphere (5% O2, 5% CO2, 90% N2). After the incubation period, 100 μL SYBR Green I dye-detergent solution was added to each well, and the plates were incubated at ambient temperature and atmosphere in the dark for at least one hour. Fluorescence was read at 497 nm excitation and 520 nm emission bands using a Spectramax iD3 plate reader. Fluorescence readings were normalized with respect to the untreated control wells representing normal parasite growth and plotted against the logarithm of drug concentration.

[1] = system: human hepatoma derived HepG2 cells; test: HepG2 cytotoxicity assay (resazurin); type: cell-based; details: for IC50: HepG2, 24 hr drug, 24 hr recovery
Description: (§4) In this assay, HepG2 cells were incubated with test compounds for 24 hours, followed by a 24-hour recovery period and subsequent staining to evaluate for cytotoxic effects with resazurin. The ratio of the resulting HepG2 IC50 value to the P. falciparum D6 IC50 value can be considered an ‘in vitro therapeutic index,’ or IVTI.
(§5) Compounds were prepared as 10 mM stock solutions in DMSO. […] HepG2 cells were added to each well of flat bottom 96-well tissue culture plates at an initial density of 2×10^4 cells per well, and an initial volume of 160 μL complete medium per well. After an overnight incubation at 37° C. to adhere the cells to the culture plates, 40 μL drug solutions in complete medium were applied to each well at a final concentration range of 0 to 200 μM across each plate. Drugs were tested in triplicate or quadruplicate. The cells were incubated for 24 hours at 37° C. and 5% CO2 with the drug solutions, which were then aspirated and replaced with 200 μL per well of complete medium for an additional 24 hour incubation under the same conditions. To each well was added 20 μL of resazurin (Alamar Blue) in PBS buffer to a final concentration of 10 μM, and the plates were incubated for 3 hours. Fluorescence was measured at 560 nm excitation and 590 nm emission bands using a Spectramax iD3 plate reader. Fluorescence readings were normalized with respect to the untreated control wells and plotted against the logarithm of drug concentration.

P. falciparum Dd2 = test: SYBR Green growth inhibition assay, P. falciparum Dd2; type: cell-based, Plasmodium falciparum; details: read-out: IC50 Dd2
Description: as §1, §2, §3

P. falciparum A6 = test: SYBR Green growth inhibition assay, P. falciparum A6; type: cell-based, Plasmodium falciparum; details: read-out: IC50 A6
Description: as §1, §2, §3

Plasmodium yoelii = test: modified 4-day Peters test, murine malaria; type: in vivo, mice; details: for cure in this model: 4-day oral dosing, 0% parasitemia at day 30; for P. yoelii ED90 / P. yoelii ED50: oral gavage days 1-4, parasitemia day 5; for P. yoelii NRD (non-recrudescence dose, cure dose): oral, doses up to 25 mg/kg/day, no parasites at day 30
Description: In this modified 4-day Peters test,^41 mice were inoculated with parasites from a donor mouse (day 0), and then dosed orally with drugs on each of the subsequent four days (days 1-4). On day 5 of the experiment, the parasitemia for each mouse was determined microscopically by examining methanol-fixed and Giemsa-stained blood smears. The ED50 represents the interpolated dose of a compound at which parasitemia was suppressed to one half that of untreated controls. Similarly, the ED90 represents the dose at which parasitemia is suppressed ten-fold. Mice were considered cured of their infection if no parasites were detected in the blood 30 days from the first drug administration, and the non-recrudescence dose (NRD) represents the lowest dose to achieve a cure.
The in vivo ED50 and ED90 of selected aminoguanidines was measured using a modified 4-day Peters test. Female CF1 mice from Charles River Laboratories were inoculated intravenously with approximately 2.5-5.0×10^4 parasitized erythrocytes (murine malaria P. yoelii, Kenya strain MR4 MRA-428) from a donor mouse (experiment day zero). On the following four days (experiment days 1-4), solutions of the test compounds in PEG-300 (or PEG-300 only for control mice) were administered by oral gavage once daily. […] Parasitemia of each mouse was determined by microscopic examination of Giemsa stained blood smears on day 5. ED50 and ED90 values were assessed by generating dose-response curves relative to untreated controls using Graphpad Prism (v. 8). Mice were considered cured of malarial infection if they maintained 0% parasitemia at experiment day 30. The procedures involved, together with all matters relating to the care, handling, and housing of the animals used in this study, were approved by the Portland VA Medical Center Institutional Animal Care and Use Committee.

P. falciparum strain D6 = test: SYBR Green growth inhibition assay, P. falciparum D6; type: cell-based, Plasmodium falciparum; details: read-out: IC50 D6
Description: (§6) The in vitro activity of each compound in the aminoguanidine library was assessed against asynchronous cultures of Plasmodium falciparum parasites replicating within human erythrocytes (Tables 1-3). As the chemical development of robenidine was not discussed in its original publication in 1970^4 and limited structural information is available regarding its mechanism of action,^10 profiling was guided primarily by in vitro potency against the P. falciparum D6 strain cultured in human erythrocytes as described above.
as §2
as §3, with “The commercial malaria drugs atovaquone and chloroquine were used as control drugs.” left out

[2] = HepG2 cytotoxicity assay (resazurin); type: cell-based, human; details: human, HepG2 cells; HepG2, 24 hr drug, 24 hr recovery
Description: as §4, §5

P. falciparum strains = type: cell-based, Plasmodium falciparum
Description: as §6
All aminoguanidines synthesized were also evaluated against three multi-drug resistant P. falciparum strains (Dd2, Tm90-C2B, and A6) and for mammalian cell cytotoxicity.
as §1
as §3, with “The commercial malaria drugs atovaquone and chloroquine were used as control drugs.” left out

[3] = system: P. falciparum Dd2 infected erythrocytes; test: SYBR Green assay adapted to 48, 72 or 96 hr incubation; type: cell-based; details: Plasmodium falciparum, DD2, Erythrocyte
Description: Many drugs have activity dependent on their exposure time in addition to concentration, and antimalarial potency is frequently stage-specific. To determine whether the aminoguanidines acted by a time-dependent mechanism against malaria parasites, the SYBR Green activity assay was adapted to include additional incubation intervals. Two potent aminoguanidines, 16 and 21, were incubated with P. falciparum Dd2 infected erythrocytes for 48, 72, or 96 hours (FIG. 3). […] A shorter incubation time allows for less parasite growth for all drug conditions, producing data with proportionally greater variability or ‘noise.’ Conversely, longer incubation times reduce noise in the resulting data.
Aminoguanidine activity appears to be driven primarily by drug concentration rather than by lengthening drug incubation time.
as §3

[4] = Plasmodium falciparum, TM90, 72 h
[5] = Plasmodium falciparum, DD2, 72 h
[6] = multi-drug resistant clinical isolate, also atovaquone resistant, 72 hr
[7] = multi-drug resistant strain, 72 hr
[8] = mutant line resistant to respiratory antagonists, 72 hr
[9] = pan-sensitive strain, 72 hr, asynchronous cultures in human erythrocytes
[10] = Plasmodium falciparum, D6, Erythrocyte, 72 h

CCN(CC)CCCC(C)Nc1ccnc2cc(Cl)ccc12 (stereo not shown) [Chloroquine, reference compound]
IC50 (P. falciparum Tm90-C2B; [4]): 297 nM
IC50 [1]: 181000 nM
IC50 (P. falciparum Dd2; [5]): 70 nM
IC50 (P. falciparum A6; Plasmodium falciparum, 72 h): 16 nM
cure in this model (Plasmodium yoelii): not curative

N=C(NN=Cc1ccc([N+](=O)[O-])cc1)NN=Cc1ccc([N+](=O)[O-])cc1 [Compound 27]
IC50 (P. falciparum Tm90-C2B; [6]): 247 nM
IC50 [1]: > 200000 nM
IC50 (P. falciparum Dd2; [7]): 198 nM
IC50 (P. falciparum A6; [8]): 85 nM
IC50 (P. falciparum strain D6; [9]): 96 nM

N#Cc1cc(/C=N/NC(=N)N/N=C/c2ccc(F)c(C#N)c2)ccc1F [Compound 1]
IC50 (P. falciparum Tm90-C2B; [4]): 16 nM
IC50 at 24 h [2]: 8000 nM
IC50 (P. falciparum Dd2; [5]): 12 nM
IC50 (P. falciparum A6; Plasmodium falciparum, 72 h): 14 nM
cure in this model (Plasmodium yoelii): not curative
P. yoelii ED90 (Plasmodium yoelii): 0.28 mg/kg/day
P. yoelii NRD (non-recrudescence dose, cure dose) (Plasmodium yoelii): >25 mg/kg/day
IC50 values against P. falciparum strains (P. falciparum strains; in words): single-digit nanomolar
IC50 (P. falciparum strain D6; [10]): 4 nM

N=C(N/N=C/c1ccc(OC(F)(F)F)cc1)N/N=C/c1ccc(OC(F)(F)F)cc1 [Compound 16]
IC50 (P. falciparum Tm90-C2B; [4]): 114 nM
IC50 at 24 h [2]: 11000 nM
IC50 (P. falciparum Dd2; [5]): 83 nM
IC50 (P. falciparum A6; Plasmodium falciparum, 72 h): 52 nM
P. yoelii ED50 (Plasmodium yoelii): 1.2 mg/kg/day
P. yoelii ED90 (Plasmodium yoelii): 3.7 mg/kg/day
P. yoelii NRD (non-recrudescence dose, cure dose) (Plasmodium yoelii): 12.5 mg/kg/day
IC50 (P. falciparum strain D6; [10]): 39 nM
IC50 ([3]; 48 h, read-out: IC50 Dd2 48 hr): 410 nM
IC50 ([3]; 72 h, read-out: IC50 Dd2 72 hr): 195 nM
IC50 ([3]; 96 h, read-out: IC50 Dd2 96 hr): 192 nM

N=C(NN=Cc1ccc2c(c1)OC(F)(F)O2)NN=Cc1ccc2c(c1)OC(F)(F)O2 [Compound 36, 2,2′-Bis{[4-(2,2-difluoro-2,3-dioxazolo)]phenyl}methylene]carbonimidic Dihydrazide Hydrochloride]
IC50 (P. falciparum Tm90-C2B; [6]): 905 nM
IC50 [1]: > 200000 nM
IC50 (P. falciparum Dd2; [7]): 800 nM
IC50 (P. falciparum A6; [8]): 235 nM
IC50 (P. falciparum strain D6; [9]): 250 nM

N#Cc1cccc(/C=N/NC(=N)N/N=C/c2cccc(C#N)c2)c1 [Compound 21]
IC50 (P. falciparum Tm90-C2B; [4]): 31 nM
IC50 at 24 h [2]: 7000 nM
effect on Hep2G activity ([1]; concentrations as high as 200 μM): no measurable effect
IC50 (P. falciparum Dd2; [5]): 20 nM
IC50 (P. falciparum A6; Plasmodium falciparum, 72 h): 24 nM
P. yoelii ED50 (Plasmodium yoelii): 7.1 mg/kg/day
P. yoelii ED90 (Plasmodium yoelii): 9.4 mg/kg/day
P. yoelii NRD (non-recrudescence dose, cure dose) (Plasmodium yoelii): >25 mg/kg/day
IC50 (P. falciparum strain D6; [10]): 7 nM
IC50 ([3]; 48 h, read-out: IC50 Dd2 48 hr): 31 nM
IC50 ([3]; 72 h, read-out: IC50 Dd2 72 hr): 21 nM
IC50 ([3]; 96 h, read-out: IC50 Dd2 96 hr): 22 nM

N=C(N/N=C/c1ccc(-n2cnnn2)cc1)N/N=C/c1ccc(-n2cnnn2)cc1 [Compound 35]
IC50 (P. falciparum Tm90-C2B; [4]): > 5000 nM
IC50 at 24 h [2]: > 200000 nM
IC50 (P. falciparum Dd2; [5]): > 5000 nM
IC50 (P. falciparum A6; Plasmodium falciparum, 72 h): > 5000 nM
activity against all tested P. falciparum strains (P. falciparum strains; D6, Dd2, Tm90-C2B, A6): inactive
IC50 (P. falciparum strain D6; [10]): 838 nM

N=C(NN=Cc1ccc(C(=O)O)cc1)NN=Cc1ccc(C(=O)O)cc1 [Compound 29]
IC50 (P. falciparum Tm90-C2B; [6]): > 5000 nM
IC50 [1]: > 200000 nM
IC50 (P. falciparum Dd2; [7]): > 5000 nM
IC50 (P. falciparum A6; [8]): > 5000 nM
activity against all tested P. falciparum strains (P. falciparum strains): inactive
IC50 (P. falciparum strain D6; [9]): > 5000 nM

N=C(NN=Cc1ccc(S(N)(=O)=O)cc1)NN=Cc1ccc(S(N)(=O)=O)cc1 [Compound 31]
IC50 (P. falciparum Tm90-C2B; [6]): > 5000 nM
IC50 [1]: > 200000 nM
IC50 (P. falciparum Dd2; [7]): > 5000 nM
IC50 (P. falciparum A6; [8]): > 5000 nM
IC50 (P. falciparum strain D6; [9]): > 5000 nM

N=C(N/N=C/c1cccc(-n2cnnn2)c1)N/N=C/c1cccc(-n2cnnn2)c1 [Compound 34]
IC50 (P. falciparum Tm90-C2B; [4]): > 5000 nM
IC50 at 24 h [2]: 107000 nM
IC50 (P. falciparum Dd2; [5]): > 5000 nM
IC50 (P. falciparum A6; Plasmodium falciparum, 72 h): 4790 nM
activity against all tested P. falciparum strains (P. falciparum strains; D6, Dd2, Tm90-C2B, A6): inactive
IC50 (P. falciparum strain D6; [10]): 1640 nM

Reference: US20220267258A1, “ROBENIDINE ANALOGS AS POTENT ANTIMALARIALS AGAINST DRUG-RESISTANT PLASMODIUM FALCIPARUM” (OREGON HEALTH & SCIENCE UNIVERSITY, priority 2021, published 2022)
